Results from patent US20220313629A1, “TRANSIENT POTENTIAL MELASTATIN 8 (TRPM8) ANTAGONISTS AND RELATED METHODS” (MARSHALL UNIVERSITY RESEARCH CORPORATION, priority 2019, published 2022).

Tests used:
TRPM8 [1] = target: T1, TRPM8 (Homo sapiens, UniProt Q7Z2W7); assay: Whole-cell patch-clamp electrophysiology, menthol-evoked TRPM8 currents in HEK-293 cells transiently transfected with human TRPM8; type: cell-based
Procedure: HEK-293 Cell culture. Human embryonic kidney (HEK) 293 cells (ATCC CRL-1573) were cultured in growth medium comprising 90% Dulbecco's modified Eagle's medium, 10% fetal bovine serum, 100 U·mL-1 penicillin-streptomycin, and 2 mM L-glutamine (Gibco). Cells were cultured in 35 mm polystyrene dishes (Falcon) at 37° C. in the presence of 5% CO2. Cells were transiently transfected with human TRPM8 in a pIRES2 plasmid containing EGFP as a reporter. This plasmid expresses bicistronic mRNA with an internal ribosome entry site (IRES) positioned between the TRPM8 gene and the fluorescent protein reporter gene such that the reporter is not covalently fused to TRPM8. […]
Whole-cell patch-clamp electrophysiology. […] Osmolality was measured using a Vapro 5600 vapor pressure osmometer (Wescor). […] Pipettes had resistances of 2-5 MO as measured in the extracellular solution. […] Current response from each cell was measured under each concentration of Compound 14. Only one cell was measured per cover slip to prevent confounding effects of previous exposure to menthol and Compound 14.
Data analysis. For each cell, current magnitude at each concentration of Compound 14 was normalized by dividing by the maximum current measured at 500 μM menthol and without the antagonist. Normalized currents from six cells were averaged at each concentration of antagonist, and the standard error of the mean was calculated at each point. […]

human TRPA1 = human TRPA1 (Homo sapiens, UniProt O75762); assay: TRPA1 agonist and antagonist Ca2+ flux assay (FLIPR, Fluo-8) in HEK293 cells stably expressing human TRPA1; type: cell-based; conditions: for hTRPA1 % Activation (n = 3-5): normalized to Emax of AITC (300 μM)
[2] = Stability in liver microsomes; type: in vitro ADME; conditions: mouse liver microsomes, 1 μM, NADPH
Procedure: Stability in liver microsomes. Male CD-1 mouse liver microsomes (Lot#1710069) were purchased from XenoTech. The reaction mixture, minus NADPH, was prepared as described below. Compound 14 was added into the reaction mixture at a final concentration of 1 μM. The control compound, testosterone, was run simultaneously with Compound 14 in a separate reaction. An aliquot of the reaction mixture (without cofactor) was equilibrated in a shaking water bath at 37° C. for 3 minutes. The reaction was initiated by the addition of the cofactor, and the mixture was incubated in a shaking water bath at 37° C. Aliquots (100 μL) were withdrawn at 0, 10, 20, 30, and 60 minutes. Compound 14 and testosterone samples were immediately combined with 400 μL of ice-cold 50/50 acetonitrile (ACN)/H2O containing 0.1% formic acid and internal standard to terminate the reaction. The samples were then mixed and centrifuged to precipitate proteins. All samples were assayed by LC-MS/MS using electrospray ionization. […] are compared to the PARR at time 0 to determine the percent remaining at each time point. Half-lives and intrinsic clearance were calculated using GraphPad software, fitting to a single-phase exponential decay equation.
In vitro metabolic stability. Compound 14 was evaluated for metabolic stability in mouse liver microsomes by Absorption Systems (Exton, Pa.), by determining the percent remaining at 0, 10, 20, 30 and 60 minutes when incubated with mouse liver microsomes in the presence of NADPH. The half-life (t1/2) and in vitro intrinsic clearance (CLint) of Compound 14 was calculated, in addition to the control (testosterone).

human TRPV1 = human TRPV1 (Homo sapiens, UniProt Q8NER1); assay: TRPV1 agonist and antagonist Ca2+ flux assay (FLIPR, Fluo-8) in HEK293 cells stably expressing human TRPV1; type: cell-based; conditions: for hTRPV1 % Activation (n = 3): normalized to Emax of capsaicin (3 μM)
TRPM8 [3] = target: T1, TRPM8; assay: TRPM8 antagonist activity by Fura-2 Ca2+ imaging in HEK-293 cells stably expressing human TRPM8; type: cell-based; conditions: for IC50: read-out: Functional Activity hTRPM8 potency IC50 ± SEM
[4] = tested on: icilin-induced wet-dog shakes (WDS) in ICR (CD1) mice; assay: Wet-dog shakes (WDS) assay, icilin-induced; type: in vivo, mouse
[5] = HEK293, read-out: hTRPA1 % Inhibition (n = 3)
[6] = at concentrations 13- to 25-fold higher than hTRPM8 IC50
[7] = HEK293, read-out: hTRPV1 % Inhibition (n = 3)

Chain of human TRPA1 (O75762 whole entry): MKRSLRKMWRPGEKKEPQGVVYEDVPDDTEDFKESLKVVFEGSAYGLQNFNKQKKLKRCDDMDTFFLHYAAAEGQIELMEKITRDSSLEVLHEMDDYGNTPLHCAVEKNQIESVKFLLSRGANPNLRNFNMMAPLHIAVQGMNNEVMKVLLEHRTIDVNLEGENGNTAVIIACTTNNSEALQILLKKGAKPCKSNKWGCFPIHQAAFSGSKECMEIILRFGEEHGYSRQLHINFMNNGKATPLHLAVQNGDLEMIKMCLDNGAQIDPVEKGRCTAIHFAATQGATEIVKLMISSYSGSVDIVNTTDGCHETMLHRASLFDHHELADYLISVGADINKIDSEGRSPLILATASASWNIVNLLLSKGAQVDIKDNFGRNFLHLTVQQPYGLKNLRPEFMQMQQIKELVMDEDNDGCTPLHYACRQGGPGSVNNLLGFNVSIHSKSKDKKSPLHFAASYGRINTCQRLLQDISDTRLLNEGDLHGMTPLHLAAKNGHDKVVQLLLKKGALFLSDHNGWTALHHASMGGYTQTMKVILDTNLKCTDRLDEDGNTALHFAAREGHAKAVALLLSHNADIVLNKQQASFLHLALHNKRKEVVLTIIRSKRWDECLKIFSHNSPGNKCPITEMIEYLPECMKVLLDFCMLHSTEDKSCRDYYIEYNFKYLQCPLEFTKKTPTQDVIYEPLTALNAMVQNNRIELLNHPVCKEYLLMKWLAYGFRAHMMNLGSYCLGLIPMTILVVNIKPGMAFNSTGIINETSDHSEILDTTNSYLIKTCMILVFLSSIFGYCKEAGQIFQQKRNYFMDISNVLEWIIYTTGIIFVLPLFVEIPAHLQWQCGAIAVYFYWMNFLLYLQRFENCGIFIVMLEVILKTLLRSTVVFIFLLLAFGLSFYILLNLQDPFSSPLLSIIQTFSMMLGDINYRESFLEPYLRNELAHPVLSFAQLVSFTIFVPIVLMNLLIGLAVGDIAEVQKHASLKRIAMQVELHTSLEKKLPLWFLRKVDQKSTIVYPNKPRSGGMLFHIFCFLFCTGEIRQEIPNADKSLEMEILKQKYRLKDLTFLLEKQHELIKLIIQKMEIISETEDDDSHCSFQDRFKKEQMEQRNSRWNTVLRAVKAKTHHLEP
T1 sequence (Q7Z2W7 whole entry, the tested form may be a part): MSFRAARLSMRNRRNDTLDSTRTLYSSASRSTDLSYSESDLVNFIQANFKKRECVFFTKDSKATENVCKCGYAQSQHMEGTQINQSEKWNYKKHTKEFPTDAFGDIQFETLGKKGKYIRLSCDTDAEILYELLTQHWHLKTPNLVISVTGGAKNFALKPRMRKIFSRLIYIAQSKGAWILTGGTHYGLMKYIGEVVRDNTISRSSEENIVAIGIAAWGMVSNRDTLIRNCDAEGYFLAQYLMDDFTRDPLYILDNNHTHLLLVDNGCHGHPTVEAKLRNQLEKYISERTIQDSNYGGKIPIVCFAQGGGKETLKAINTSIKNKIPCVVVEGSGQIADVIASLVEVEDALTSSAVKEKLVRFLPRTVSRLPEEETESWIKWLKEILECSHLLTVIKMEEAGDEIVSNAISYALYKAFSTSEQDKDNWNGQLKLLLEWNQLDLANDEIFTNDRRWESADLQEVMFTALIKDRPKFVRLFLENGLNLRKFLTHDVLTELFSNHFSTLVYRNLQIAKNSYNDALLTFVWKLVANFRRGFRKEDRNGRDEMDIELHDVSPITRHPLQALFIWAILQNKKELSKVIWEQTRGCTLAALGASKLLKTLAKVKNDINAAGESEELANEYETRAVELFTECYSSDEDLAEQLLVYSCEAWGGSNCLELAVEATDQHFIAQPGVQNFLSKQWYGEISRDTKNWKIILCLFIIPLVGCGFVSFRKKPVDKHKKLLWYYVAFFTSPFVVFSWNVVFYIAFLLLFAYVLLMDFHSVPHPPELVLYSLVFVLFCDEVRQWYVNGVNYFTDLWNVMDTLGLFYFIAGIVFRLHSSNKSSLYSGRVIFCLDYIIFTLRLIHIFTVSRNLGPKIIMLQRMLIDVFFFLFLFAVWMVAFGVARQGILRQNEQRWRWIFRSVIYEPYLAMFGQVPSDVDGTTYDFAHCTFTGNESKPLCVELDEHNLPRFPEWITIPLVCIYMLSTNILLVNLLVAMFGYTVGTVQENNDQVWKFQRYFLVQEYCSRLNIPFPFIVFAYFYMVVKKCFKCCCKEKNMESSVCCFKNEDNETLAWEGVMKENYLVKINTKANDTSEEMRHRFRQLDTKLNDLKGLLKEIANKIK
Chain of human TRPV1 (Q8NER1 whole entry): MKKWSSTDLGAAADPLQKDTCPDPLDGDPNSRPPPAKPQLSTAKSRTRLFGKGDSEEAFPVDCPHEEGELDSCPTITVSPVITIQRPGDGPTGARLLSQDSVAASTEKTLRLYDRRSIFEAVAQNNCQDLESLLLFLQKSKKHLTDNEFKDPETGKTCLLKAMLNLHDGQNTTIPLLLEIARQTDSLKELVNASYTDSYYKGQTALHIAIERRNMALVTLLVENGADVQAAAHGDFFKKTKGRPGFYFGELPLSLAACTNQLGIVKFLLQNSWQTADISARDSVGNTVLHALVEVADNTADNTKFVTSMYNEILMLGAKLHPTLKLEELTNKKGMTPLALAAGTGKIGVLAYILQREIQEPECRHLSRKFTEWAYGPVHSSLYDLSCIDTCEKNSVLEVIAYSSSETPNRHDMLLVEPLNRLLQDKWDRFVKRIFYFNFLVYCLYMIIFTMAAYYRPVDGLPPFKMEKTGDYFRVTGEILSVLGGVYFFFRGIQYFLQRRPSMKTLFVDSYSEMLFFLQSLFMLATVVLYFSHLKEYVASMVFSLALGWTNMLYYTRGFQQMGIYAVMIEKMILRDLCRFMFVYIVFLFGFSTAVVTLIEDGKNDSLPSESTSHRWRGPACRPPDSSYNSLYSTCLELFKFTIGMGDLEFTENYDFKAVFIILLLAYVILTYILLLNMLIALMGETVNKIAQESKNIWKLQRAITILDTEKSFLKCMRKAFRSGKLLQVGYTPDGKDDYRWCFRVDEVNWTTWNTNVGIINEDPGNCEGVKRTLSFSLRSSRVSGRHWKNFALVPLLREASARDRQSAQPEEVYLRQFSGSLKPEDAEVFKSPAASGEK

- antagonist activity relative to a tryptamine-based antagonist in the same assay (TRPM8 [1]; patch clamp): 6 fold
- IC50 (TRPM8 [1]; whole-cell patch clamp, +80 mV, 500 μM menthol, n=6 cells, read-out: IC50, inhibition of menthol-evoked TRPM8 currents): 64 ± 2 nM
- inhibition at 0.003 µM (human TRPA1; [5]): -6 ± 5%
- inhibition at 0.03 µM (human TRPA1; [5]): -3 ± 2%
- effect on hTRPA1-mediated responses (intrinsic and antagonist activity) (human TRPA1; [6]): do not affect
- selectivity for TRPM8 vs. TRPA1 (human TRPA1; from FLIPR single-point assays): 13 fold
- hTRPA1 % Activation (n = 3-5) (human TRPA1; tested at 3 nM): −0.8 ± 0.4%
- hTRPA1 % Activation (n = 3-5) (human TRPA1; tested at 30 nM): 0.1 ± 1.2%
- % Remaining of Initial (n = 1), 0 min ([2]; 0 min): 100%
- % Remaining of Initial (n = 1), 10 min ([2]; 10 min): 78%
- % Remaining of Initial (n = 1), 20 min ([2]; 20 min): 57%
- % Remaining of Initial (n = 1), 30 min ([2]; 30 min): 47%
- % Remaining of Initial (n = 1), 60 min ([2]; 60 min): 31%
- inhibition at 0.003 µM (human TRPV1; [7]): -9 ± 2%
- inhibition at 0.03 µM (human TRPV1; [7]): -0.6 ± 5%
- effect on hTRPV1-mediated responses (intrinsic and antagonist activity) (human TRPV1; [6]): do not affect
- selectivity for TRPM8 vs. TRPV1 (human TRPV1; from FLIPR single-point assays): 13 fold
- hTRPV1 % Activation (n = 3) (human TRPV1; tested at 3 nM): 1 ± 1%
- hTRPV1 % Activation (n = 3) (human TRPV1; tested at 30 nM): 1 ± 2%
- effect on icilin-induced Ca2+ influx at higher concentrations (TRPM8 [3]; higher concentrations of the dose-response curve): nearly abolishes the Ca^2+ influx
- lowest concentration still causing significant reduction in icilin-evoked TRPM8-mediated Ca2+ entry (TRPM8 [3]; icilin 500 nM): 3 nM
- IC50 (TRPM8 [3]; inhibition of icilin (500 nM)-evoked Ca2+ entry, HEK-293 cells stably expressing hTRPM8, mean ± SEM, three independent experiments): 2.4 ± 1 nM
- IC50 (TRPM8 [3]): ≤ 10 nM
SMILES: O=C(NC1CCC2(CCCC2)CC1)c1ccc(-c2ccccc2)cc1 [Compound 14, N-(spiro[4.5]decan-8-yl)-[1,1′-biphenyl]-4-carboxamide]
- effect on menthol-evoked TRPM8-mediated Ca2+ entry (TRPM8 [3]; compound at 3 nM against maximal (100 μM) menthol): significantly (P<0.01) reduce TRPM8-mediated Ca^2+ entry triggered by menthol
- inhibition of WDS at the highest dose compared with gabapentin ([4]; 50 mg/kg s.c., gabapentin 25 mg/kg s.c.): efficacy comparable to that observed with a standard analgesic dose of gabapentin
- effect on icilin-induced wet-dog shakes ([4]; 1, 30 and 50 mg/kg s.c. 30 minutes before icilin (10 mg/kg i.p.)): marked, dose-dependent antinociceptive behavior
